Assay results reported in patent US11241436B2, “Autophagy inducers for treatment of CNS conditions” (Northwestern University, priority 2017, dated 2022).

What was measured:
GFP-LC3 transgenic mice = experiment: GFP-LC3 puncta in tissues of GFP-LC3 transgenic mice; assay type: in vivo, mouse; conditions: for numbers of GFP-LC3 puncta (autophagosomes): mouse brain; for number of GFP-LC3 puncta (autophagosomes): brain frontal cortex, heart, liver and muscle
Source text: Results represent mean±s.d. Scale bar, 25 μm. N>100 cells or N2::4 mice.
Scale bar, 20 μm. Results represent mean±s.d. N≥4 mice.
Results represent mean±s.e.m. Statistics compare each value to the one with DMSO treatment. *, P<0.05; **, P<0.01; ***, P<0.001, t test. Scale bar: 20 μm.
To test this hypothesis, it was confirmed that Rg2 induces autophagy in vivo, by injecting Rg2 intraperitoneally (i.p.) into transgenic mice globally expressing GFP-LC3. […] Furthermore, in vivo autophagy induction by Rg2 via GFP-LC3 puncta assays in both muscle and brain was examined. […] Thus, the majority of Rg2 is not bound by plasma proteins and is freely available. Taken together, Rg2 was identified as a new in vivo autophagy inducer in vivo.
Autophagy analyses. For assessment of autophagy in vivo, 8-week old male WT and Becn 1FA/FA mice crossed to GFP-LC3 mice were exercised for 90 minutes, or starved for 48 h, and then anaesthetized by isoflurane and perfused with 4% PFA Brain and muscle samples were fixed in 4% PFA overnight, 15% sucrose for 4 h and 30% sucrose overnight before frozen sections were prepared. The number of GFP-LC3 puncta per unit area of tissue was quantified by fluorescence microscopy. Autophagy in vivo was also analyzed by western blot analysis of brain tissue extracts with antibodies against LC3 and p62/SQSTM1 (see below for details).

Beclin 2-GASP1 binding = experiment: Coimmunoprecipitation of endogenous GASP1 with endogenous Beclin 2 from mouse brain lysates; assay type: in vivo; conditions: injection to WT mice
Source text: Lysates in each group were pooled from 3 mice.
Based on this model, the effect of these inducers on the Beclin 2-GASP1 interaction in vitro and in mouse brain were subsequently examined.

CB1R signaling = CB1R signaling in brain (phosphorylation of MEK and JNK) after chronic WIN; assay type: in vivo, mouse; conditions: repeated WIN dosage 14 d, then acute WIN 1 h
Protocol: WT mice were treated with either daily WIN or vehicle for 14 d, and then subject to an acute dosage of WIN 1 h prior to collection of brain samples.
To investigate whether restoration of CB1R signaling underlies the behavioral regulation by autophagy activation, the level and functionality of CB1R in mouse brain after co-administration of chronic cannabinoids and autophagy inducers were analyzed. […] To determine whether the increased level of CB1R represents CB1R re-sensitization in the brain, the agonist-induced phosphorylation of signaling kinases downstream of CB1R after chronic WIN exposure were analyzed.

HTT aggregates = experiment: Fluorescence imaging of HTT inclusions in HeLa cells; assay type: cell-based
Source text: Blue, DAPI. Results represent mean±s.e.m. Scale bar: 20 μm. Statistics compare each value to the one under the “-” condition. **, P<0.01; ***, P<0.001; NS, not significant, t test.
ML246 promotes the removal of intracellular aggregates formed by polyglutamine (polyQ)-expansion proteins. HeLa cell lines stably expressing tetracycline-repressible expanded polyQ-repeat protein HTT (huntingtin) was used as a model, HTT65Q and HTT103Q. In contrast to the HTT protein with the normal number of glutamine repeats (HTT25Q), HTT65Q and HTT103Q formed insoluble polyQ aggregates larger than 0.2-μm diameter, which can be detected by filter trap assay. […] Fluorescence imaging further confirmed that ML246 administration decreased the number of cells positive for HTT aggregates, which is also in an ATG7-dependent manner (FIG. S6B).
Accordingly, whether Rg2 affects the clearance of proteinaceous inclusions in vitro was next determined, using HeLa cell lines expressing tetracycline-repressible expanded polyglutamine (polyQ)-repeat protein HTT (huntingtin), HTT65Q and HTT103Q. Unlike the HTT protein with the normal number of glutamine repeats (HTT25Q), HTT65Q and HTT103Q formed insoluble polyQ aggregates larger than 0.2-μm diameter, which were detected by filter trap assays (FIG. 5A).

Aβ42 = experiment: Dot blot assay of Aβ42 in brain of 5XFAD mice; assay type: in vivo, mouse
Protocol: Total protein loading was labeled by Ponceau S. N=5. **, P<0.01, t test.
Total protein loading was labeled by Ponceau S. Triplicate experiments from 4-5 mice in each group were shown. Results represent mean±s.e.m. NS, not significant; *, P<0.05; **, P<0.01; ***, P<0.001, t test.
Total protein loading was labeled by Ponceau S. Triplicate experiments from 4 mice in each group were shown.
Dot blot assay. Snap frozen hemi-brain were homogenized in 800 μl phosphate-buffered saline (PBS; Sigma-Aldrich, D8537) with 1% Triton X-100 supplemented with halt proteinase inhibitor cocktail (ThermoFisher Scientific), and halt phosphatase inhibitor cocktail (ThermoFisher Scientific). Protein concentration was quantified using BCA Assay (Pierce). For Af342 dot blots, 10 mg/ml brain homogenates were extracted in guanidine buffer (5 M guanidine-HCl [GuHCl], 50 mM Tris HCl pH 8.0) overnight at room temperature. One μl of sample was spotted in triplicate on 0.2 μm nitrocellulose membrane, and dried for 1 h at 37° C. The membrane was stained with Ponceau S, and the dot blot signal on the membrane was detected by immunostaining with Aβ42 antibody (Invitrogen, 700254, 1:1000) and HRP-conjugated secondary antibody (Santa Cruz Biotechnology, sc2004, 1:2000). Aβ42 signals were normalized to the Ponceau S staining. To separate soluble and insoluble Aβ fractions, 10 mg/ml of the total homogenated brains were centrifuged at 14000 rpm, 4° C. for 30 min. The supernatant (soluble fraction) was used directly for dot blot assays. The pellet (insoluble fraction) was extracted in guanidine buffer overnight at room temperature, and used in dot blot analyses. […] One μl of each sample was spotted on nitrocellulose membrane for dot blot analysis.

amyloid plaques = experiment: Amyloid plaques stained by thioflavin S or Aβ42 antibody in brain of 5XFAD mice; assay type: in vivo, mouse
Protocol: Scale bar: 500 μm. Results represent mean±s.e.m. N=6-8. *, P<0.05; **, P<0.01, t test.
Immunofluorescence microscopy. Paraformaldehyde-fixed brain tissues were sectioned at 30 μm thickness. Free-floating sagittal sections were immunostained with 1% thioflavin S (Sigma-Aldrich, 230456) for 20 minutes. Additional sections were immunostained with Aβ (Invitrogen, 700254, 1:500) and Alexa Fluro 594 goat anti rabbit (ThermoFisher Scientific, Al 1012). Sections were mounted on slides with mounting medium containing DAPI (Vectashield) and then analyzed by fluorescence microscopy under the 10× objective.

[1] = 6-month old 5XFAD mice, ML246 5 mg/kg i.p. for 5 weeks

SMILES	numbers of GFP-LC3 puncta (autophagosomes) (GFP-LC3 transgenic mice)	binding between endogenous Beclin 2 and endogenous GASP1 (Beclin 2-GASP1 binding)	CB1R (CNR1) signaling: phosphorylation of MEK and JNK (CB1R signaling)	number of cells positive for HTT aggregates (HTT aggregates; ML246)	insoluble Aβ42 in brain (Aβ42; [1])	soluble Aβ42 in brain (Aβ42; [1])	effect on brain Aβ42 (Aβ42; autophagy-deficient 5XFAD Becn1+/− KO mice, ML246 5 weeks)	amyloid plaques (amyloid plaques; 5XFAD mice, 5 weeks of ML246)	number of GFP-LC3 puncta (autophagosomes) (GFP-LC3 transgenic mice; 10 mg/kg i.p.)	number of GFP-LC3 puncta (autophagosomes) (GFP-LC3 transgenic mice; 20 mg/kg i.p.)	duration of autophagy activity (GFP-LC3 transgenic mice; brain)	time of peak of autophagy activity (GFP-LC3 transgenic mice; brain) [h]	time of decline of autophagy to the basal level (GFP-LC3 transgenic mice; muscle) [h]	time of peak of induced autophagy (GFP-LC3 transgenic mice; muscle) [h]	number of cells positive for HTT aggregates (HTT aggregates; Rg2)	level of brain Aβ42 (Aβ42; Rg2 injection for 16 weeks in 2 month-old male 5XFAD mice vs vehicle (DMSO))	number of amyloid plaques (amyloid plaques; Rg2-treated 5XFAD mice, thioflavin or Aβ42 antibody)
N=c1c2c(-c3ccccc3)c(-c3ccccc3)n(Cc3ccccc3)c2ncn1[C@H]1CC[C@H](O)CC1 [ML246]	markedly increased	dramatically decreased	rescued	decreased	decreased levels	decreased levels	abolished	trend of plaque reduction									
CC(C)=CCC[C@](C)(O)[C@H]1CC[C@]2(C)[C@@H]1[C@H](O)C[C@@H]1[C@@]3(C)CC[C@H](O)C(C)(C)[C@@H]3[C@@H](O[C@@H]3O[C@H](CO)[C@@H](O)[C@H](O)[C@H]3O[C@@H]3O[C@@H](C)[C@H](O)[C@@H](O)[C@H]3O)C[C@]12C [Rg2, ginsenoside Rg2]	markedly increased	dramatically decreased	rescued						significantly increases	significantly increases	at least 24 h	4	8 to 16	4	reduced	effectively decreased	significantly fewer number
